Usually IC50 stands for the concentration that gives 50% inhibition. A low value points to greater potency.

Structures are written as SMILES. ≈ marks a conversion by molar mass, not a printed value.

We go through 31 molecules from ChEMBL document CHEMBL1146662, “Novel inhibitors of bacterial protein synthesis: structure-activity relationships for 1,8-naphthyridine derivatives incorporating position 3 and 4 variants” (Bioorg Med Chem Lett, 2004).

The subject of the first assay is Escherichia coli. In words: Antibacterial activity against Escherichia coli in presence of permeabilizer and EDTA. Type of assay: functional.
Turning to `NCCNc1ccnc2nc(N3CCCC3)c(F)cc12`, the MIC amounted to 32 µg/mL.

Target in another assay: not listed separately
Put plainly: Inhibitory concentration against luciferase synthesis in Streptococcus pneumoniae. Type of assay: functional.
For `OCCNc1ccnc2nc(N3CCCC3)c(F)cc12`, the IC50 stood at 91 µM.

As for `CCCNc1ccnc2nc(N3CCCC3)c(F)cc12`, the IC50 was 19 µM.

Molecule `Oc1ccnc2nc(N3CCCC3)c(F)cc12` came in with an IC50 above 100 µM.

Take `Fc1cc2c(N3CCNCC3)ccnc2nc1N1CCCC1`: the IC50 was above 100 µM.

`CC(Nc1ccnc2nc(N3CCCC3)c(F)cc12)c1ccccc1` (configuration not stated) gave an IC50 above 100 µM.

In turn, `O=C(NO)c1cnc2nc(N3CCCC3)c(F)cc2c1O` yielded an IC50 above 100 µM.

In the case of `CC(C)CCNC(=O)c1cnc2nc(N3CCC(N)C3)c(F)cc2c1O` (configuration not stated), the IC50 was 25 µM.

In turn, `CC(C)NC(=O)c1cnc2nc(N3CCC(N)C3)c(F)cc2c1O` (configuration not stated) returned an IC50 above 100 µM.

As to `CN(C)CCNCc1cnc2nc(N3CCCC3)c(F)cc2c1O`, the half-maximal inhibitory concentration (IC50) is above 100 µM.

For the molecule `CN(C)CCN(C)c1ccnc2nc(N3CCCC3)c(F)cc12`, the IC50 came out at 18 µM.

Turning to `CC(C)CCN(C)C(=O)c1cnc2nc(N3CCC(N)C3)c(F)cc2c1O` (configuration not stated), the IC50 is above 100 µM.

`NC(=O)CNc1ccnc2nc(N3CCCC3)c(F)cc12` came in with a 50% inhibitory concentration (IC50) of 82 µM.

`CCOC(=O)c1cnc2nc(N3CCCC3)c(F)cc2c1O` gave an IC50 above 100 µM.

Consider `CCOC(=O)c1cnc2nc(N3CCC(N)C3)c(F)cc2c1O` (configuration not stated), for which the IC50 is 20 µM.

In turn, `NC1CCN(c2nc3ncc(C(=O)O)c(O)c3cc2F)C1` (configuration not stated) yielded an IC50 of 5 µM.

`CCN(CC)CCCNCc1cnc2nc(N3CCC(N)C3)c(F)cc2c1O` (configuration not stated) displayed an IC50 of 10 µM.

Molecule `NNc1ccnc2nc(N3CCCC3)c(F)cc12` displayed an IC50 of 89 µM.

In the case of `NC1CCN(c2nc3ncc(CNCCCc4ccccc4)c(O)c3cc2F)C1` (configuration not stated), the midpoint of inhibition, the IC50, lay at 10 µM.

The molecule `CC(=O)c1cnc2nc(N3CCC(N)C3)c(F)cc2c1O` (configuration not stated) displayed an IC50 of 50 µM.

`NC1CCN(c2nc3ncc(CNc4ccccc4)c(O)c3cc2F)C1` (configuration not stated) showed a 50% inhibitory concentration (IC50) of 54 µM.

`Oc1c(CNCc2ccccc2)cnc2nc(N3CCCC3)c(F)cc12` had an IC50 above 100 µM.

Turning to `O=C(O)CNc1ccnc2nc(N3CCCC3)c(F)cc12`, the IC50 was above 100 µM.

In turn, `NCCNc1ccnc2nc(N3CCCC3)c(F)cc12` came in with an IC50 of 11 µM.

Regarding `COCCNc1ccnc2nc(N3CCCC3)c(F)cc12`, the IC50 worked out at 39 µM.

For the molecule `O=C(O)c1cnc2nc(N3CCCC3)c(F)cc2c1O`, it took 10 µM to reach half-maximal inhibition (IC50).

Molecule `Oc1c(CNc2ccccc2)cnc2nc(N3CCCC3)c(F)cc12` yielded a half-maximal inhibitory concentration (IC50) above 100 µM.

Molecule `O=Cc1cnc2nc(N3CCCC3)c(F)cc2c1O` displayed an IC50 above 100 µM.

In turn, `NC(=O)c1cnc2nc(N3CCC(N)C3)c(F)cc2c1O` (configuration not stated) registered an IC50 of 23 µM.

As to `NC1CCN(c2nc3ncc(CNCc4ccccc4)c(O)c3cc2F)C1` (configuration not stated), the IC50 worked out at 25 µM.

`OCc1cnc2nc(N3CCCC3)c(F)cc2c1O` gave an IC50 above 100 µM.

For another assay, the system named is Escherichia coli. In words: Antibacterial activity against Escherichia coli. Type of assay: functional.
Regarding `NCCNc1ccnc2nc(N3CCCC3)c(F)cc12`, the MIC is above 128 µg/mL.

The subject of a further assay is Streptococcus pneumoniae. In words: Antibacterial activity against Quinolone-resistant Streptococcus pneumoniae 7257. Type of assay: functional.
The molecule `NC1CCN(c2nc3ncc(C(=O)O)c(O)c3cc2F)C1` (configuration not stated) came in with an MIC of 32 µg/mL (≈ 109 µM).

For `O=C(O)c1cnc2nc(N3CCCC3)c(F)cc2c1O`, the MIC amounted to 4 µg/mL (≈ 14.4 µM).

The next assay relates to Haemophilus influenzae. In words: Antibacterial activity against Haemophilus influenzae GYR 1435. Type of assay: functional.
In the case of `NC1CCN(c2nc3ncc(C(=O)O)c(O)c3cc2F)C1` (configuration not stated), the MIC amounted to 4 µg/mL (≈ 13.7 µM).

The molecule `O=C(O)c1cnc2nc(N3CCCC3)c(F)cc2c1O` had an MIC of 1 µg/mL (≈ 3.61 µM).

`C[C@H]1COc2c(N3CCN(C)CC3)c(F)cc3c(=O)c(C(=O)O)cn1c23.C[C@H]1COc2c(N3CCN(C)CC3)c(F)cc3c(=O)c(C(=O)O)cn1c23.O` [LEVOFLOXACIN] registered an MIC of 0.015 µg/mL.
